Experimental data reported in the NIST ThermoML archive (doi:10.1016/j.jct.2016.07.035).
± gives the expanded uncertainty stated by the source.

Conditions: Crystal; visual observation

SMILES: COC(=O)C1=C(C)NC(C)=C(C(=O)OC)C1c1ccccc1[N+](=O)[O-]
- Normal melting temperature: 173.50 ± 2.1 °C
